From publication PMC11432405, “Development of Novel Alaninamide Derivatives with Anticonvulsant Activity and Favorable Safety Profiles in Animal Models” (International Journal of Molecular Sciences, 2024) come the findings set out here.

Data set [1] has as its system maximal electroshock (MES) seizures. Kind of data set: maximal electroshock seizure (MES) test. As to conditions: Mus musculus, ip, mice i.p. The format is in vivo, mice. The text has this: Epilepsy is a multifaceted disorder with often unclear etiology, making it challenging to pinpoint a specific receptor or transporter as the definitive target. Consequently, the discovery of ASMs deviates from the traditional drug development pathway, which typically involves designing a new molecule, docking it with a specific biological target, and performing chemical synthesis, followed by in vitro assays. Instead, numerous animal seizure models, which mirror various types of human epileptic seizures, are initially employed in the process of new ASM discovery. This approach has been instrumental in the identification and introduction into clinical practice of all currently used ASMs and continues to be a cornerstone in the preclinical development of new anticonvulsants. The primary justification for prioritizing in vivo screening over in vitro binding and functional studies is the complex and often not fully elucidated mechanisms of action of known ASMs. This approach also facilitates the discovery of compounds with novel, previously undefined pharmacodynamic properties. In light of this, we evaluated all compounds obtained in the current studies using the MES test, which remains one of the most valuable preclinical screening models for tonic-clonic seizures, as well as partial convulsions with or without secondary generalization in humans. This test allows for a comprehensive assessment of the anticonvulsant efficacy of new ASM candidates and is considered highly relevant for predicting their therapeutic efficacy in human epilepsy. The MES test was carried out in mice following the intraperitoneal (i.p.) administration of a screening dose of 100 mg/kg in a group consisting of four animals. The efficacy of the compounds synthesized was evaluated at 0.5 h pretreatment time.
Fresh solutions were prepared daily for each experimentation session.
Each group consisted of six animals.
A general note: Protection in the maximal electroshock model is a classic sign of anticonvulsant action.

A short description of data set [2]: rotarod test (acute neurological toxicity, motor coordination). The format is in vivo. As to conditions: male, CD-1 (albino Swiss), mouse, in vivo, ip, mice i.p. For orientation: Falling from the rotarod earlier than controls is read as motor impairment.
Procedure: The protective indexes (PIs) were then calculated as the ratio of TD50 to ED50 (PI = TD50/ED50), providing an assessment of the therapeutic window for each compound.
The subject of the next data set is HepG2 cells. Kind of data set: hepatocytotoxicity MTT viability assay. The format is cell-based, human. The note with it: 1–50 µM, 24 h. The protocol: (§1) To evaluate selected compounds’ hepatocytotoxicity and neurocytotoxicity, a human hepatocellular carcinoma cell line, HepG2 (ATCC® HB-8065™), and a human neuroblastoma cell line, SH-SY5Y (ATCC®, CRL-2266™), were used. Both cell lines were cultured in standard culture conditions (5% CO2, 37 °C, 95% humidity) using Dulbecco′s Modified Eagle′s—Medium (DMEM; Gibco, Thermo Scientific, Waltham, MA, USA) supplemented with 10% (vol/vol) fetal bovine serum (FBS; Gibco, Thermo Scientific, Waltham, MA, USA) and an antibiotic mixture (Penicillin, Streptomycin, Amphotericin B; Gibco, Thermo Scientific, Waltham, MA, USA). Cells were cultured with compounds 5, […], or 39 (1–50 µM) for 24 h and then an MTT (3-(4,5-dimethylthiazol-2-yl)-2,5diphenyltetrazolium bromide, Sigma-Aldrich, St. Louis, MO, USA) viability assay was performed. The formazan crystals were dissolved in DMSO (Sigma-Aldrich, St. Louis, MO, USA), and the absorbance at 570 nm was measured using a microplate reader (SpectraMax® iD3, Molecular Devices, San Jose, CA, USA). The experiment was performed three times in duplicate. Each bar represents the mean (±SEM) percentage of viable cells in comparison to the control (defined as 100% and represented by untreated cells).
Figure 2 The viability of HepG2 cells incubated in the presence of 5, 17, and 39. HepG2 cells were exposed to growing concentrations (1–50 µM) of tested compounds for 24 h. Cell viability was measured using an MTT assay. Bars represent mean percent of cell viability normalized to non-treated cells (100%) ± SEM. The doxorubicin was tested as a positive control.
(Tetrazolium assays rely on reduction of a dye to a coloured formazan, in cell work by metabolically active cells.)

The subject of the next data set is SH-SY5Y cells. Kind of data set: neurocytotoxicity MTT viability assay. The note with it: 1–50 µM, 24 h. It counts as cell-based, human. As to the method:
as §1
Figure 3 The viability of SH-SY5Y cells incubated in the presence of compounds 5, 17, and 39. […] Cell viability was measured using an MTT assay. […]

The target of another data set is T1, human recombinant MAO-B (Homo sapiens, UniProt P27338).
T1 construct: purchased Sigma Aldrich
T1 sequence (P27338 1-520): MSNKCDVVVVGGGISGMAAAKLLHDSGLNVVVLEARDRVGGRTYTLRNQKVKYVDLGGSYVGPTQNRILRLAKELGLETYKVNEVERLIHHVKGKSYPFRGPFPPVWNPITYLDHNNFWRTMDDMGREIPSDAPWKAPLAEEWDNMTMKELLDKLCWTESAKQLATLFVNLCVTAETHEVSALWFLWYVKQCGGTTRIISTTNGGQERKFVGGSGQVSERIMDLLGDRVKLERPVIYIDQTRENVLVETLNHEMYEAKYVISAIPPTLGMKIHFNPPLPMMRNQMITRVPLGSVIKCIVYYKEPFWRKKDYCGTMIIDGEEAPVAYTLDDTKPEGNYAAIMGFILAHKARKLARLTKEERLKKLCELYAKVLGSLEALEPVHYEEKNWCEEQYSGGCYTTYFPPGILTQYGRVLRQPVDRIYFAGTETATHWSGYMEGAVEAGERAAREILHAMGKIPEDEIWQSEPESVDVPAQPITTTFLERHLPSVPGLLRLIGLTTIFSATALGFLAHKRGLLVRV
Kind of data set: fluorometric monoamine oxidase B inhibition assay. The format is biochemical. As to conditions: read-out: % inhibition MAO-B (1 µM), mean of two independent experiments.

Another data set has as its system 6 Hz (32 mA) seizures. Kind of data set: 6 Hz (32 mA) psychomotor seizure model.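 Also: adult male albino Swiss CD-1 mice, each used once, with compounds suspended in 1% Tween 80 in water as vehicle.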 The note with it: Mus musculus, ip, 0.5 h.

Structures are written as SMILES. Read-outs that look alike come from different tables or passages of the source.

By ED50 is commonly meant the dose that gives a 50% effect, or the effect in half of the subjects. One may read the TD50 as the dose at which the toxic effect under study appears in half of the subjects. Lower therefore signals harm at a small dose. For orientation: inhibition means the relative decrease from the control value, in per cent. Broadly, the melting point is the temperature, or range, at which the solid turns liquid.

`CC(C(=O)NCc1ccc(OCc2ccc(OC(F)(F)F)cc2)cc1)N1C(=O)CCC1=O` (stereo not shown) [Compound 17, 2-(2,5-dioxopyrrolidin-1-yl)-N-(4-((4-(trifluoromethoxy)benzyl)oxy)benzyl)propanamide] gave a melting point of 104.1 to 104.8 °C. Moreover, the responders at 100 mg/kg in data set [1] (100 mg/kg, 0.5 h, four mice, read-out: protection (efficacy) in the MES screening) was 100%. The ED50 in data set [1] (TPE 0.5 h, 95% confidence interval in parentheses) came out at 21 mg/kg. Besides, in data set [1] (dose of 100 mg/kg, pretreatment time 0.5 h, read-out: MES test: number of mice protected / number of mice tested (converted)), the responders at 100 mg/kg was 100%. This compound also yielded a TD50 at 0.5 h in data set [2] greater than 300 mg/kg. In addition, the “toxic effect on HepG2 cell viability (MTT)” value in the data set with HepG2 cells is given as “do not exhibit toxic effects”. The “toxic effect on SH-SY5Y cell viability (MTT)” value in the data set on SH-SY5Y cells is “do not exhibit toxic effects”. In addition, the inhibition at 1 µM at human recombinant MAO-B was found to be 0%. The ED50 in the data set with 6 Hz (32 mA) seizures (read-out: ED50 6 Hz (32 mA), mice i.p., TPE 0.5 h, 95% confidence interval in parentheses) came to 77 mg/kg. The responders at 100 mg/kg in the data set on 6 Hz (32 mA) seizures (read-out: protection (efficacy) in the 6 Hz (32 mA) screening) was determined as 75%.
